Measured values published in patent publication US20040071762A1, “Diagnostic test for schizophrenia, using niacin” (Scotia Holdings PLC, priority 1996, published 2004).
Where two headings read alike, the source gives them in different places.

Tests used:
skin [1] = conditions: 100-300 mg given orally, cited from earlier work
skin [2] = assay: Topical niacin skin patch test, redness (flushing) scored 0-3; assay type: in vivo, human; conditions: for Percentage responding with absent [0] reddening of the skin / Percentage responding with marked [3] reddening of the skin / Percentage responding with mild [1] reddening of the skin / Percentage responding with moderate [2] reddening of the skin: 5 minutes
Text: The test involves the topical application of niacin solutions, preferably in a carrier such as gauze, cotton, wax or appropriate fibre or absorbent material, to the skin of any part of the body, but conveniently the forearm or upper arm. A range of solutions may be used from 0.00001M to 1 molar. A single concentration may be chosen and used but desirably use is made of a range of steps varying from two to twenty. We have found it convenient is to use a range of four solutions of 0.1, 0.01, 0.001 and 0.0001M, e.g. 0.05 ml of each, but other concentrations within the range and other numbers of steps can be used as found appropriate, both in diagnosis and in monitoring as discussed above. […] The wells or depressions may be sealed by another plastic or other strip which isolates them from the atmosphere and which can be removed immediately prior to testing. The strip with the open wells can then be applied to the skin surface with light pressure and removed after an appropriate time which may be e.g. 0.5 minutes up to 10 or 15 minutes but preferably 3 to 6 minutes.
Both of these effects are due to vasodilatation of the small blood vessels of the skin. The redness may be scored in relation to the adjacent unaffected skin on an appropriate scale which can be either “present” or “absent”, or can be semi-quantitative, such as mild, moderate or marked, or can be made fully quantitative by use of a spectrophotometer or other appropriate instrument e.g. a blood flow meter. The oedema can likewise be scored as present or absent or can be scored semi-quantitatively or quantitatively.
We have also used a scoring system in which the degree of redness under each patch was scored as 0=no change, 1=mild redness, 2=moderate redness and 3=marked redness. When the test is used commercially, sample colour charts may show how the test can be used with individuals of varying skin colour. With particularly dark-skinned individuals, oedema or a measurement of skin surface temperature or heat loss may be required to give the best results.

[3] = normal controls (n=22), topical niacin 0.000. M
[4] = normal controls (n=22), topical niacin 0.001 M
[5] = normal controls (n=22), topical niacin 0.01 M
[6] = normal controls (n=22), topical niacin 0.1 M
[7] = schizophrenics (n=38), topical niacin 0.000. M
[8] = schizophrenics (n=38), topical niacin 0.001 M
[9] = schizophrenics (n=38), topical niacin 0.01 M
[10] = schizophrenics (n=38), topical niacin 0.1 M

SMILES: O=C(O)c1cccnc1 [Niacin, nicotinic acid]
- Flushing response to oral niacin (skin [1]; a substantial proportion of schizophrenics): fail to flush
- Flushing response to oral niacin (skin [1]; most normal individuals): flush markedly
- Response to topical niacin test in depressives (skin [2]; depressives, expected by analogy with oral niacin): the same as for normal individuals
- Percentage responding with absent [0] reddening of the skin (skin [2]; [3]): 35.3%
- Percentage responding with marked [3] reddening of the skin (skin [2]; [3]): 17.6%
- Percentage responding with mild [1] reddening of the skin (skin [2]; [3]): 29.4%
- Percentage responding with moderate [2] reddening of the skin (skin [2]; [3]): 17.6%
- Percentage responding with absent [0] reddening of the skin (skin [2]; [4]): 31.8%
- Percentage responding with marked [3] reddening of the skin (skin [2]; [4]): 18.2%
- Percentage responding with mild [1] reddening of the skin (skin [2]; [4]): 9.1%
- Percentage responding with moderate [2] reddening of the skin (skin [2]; [4]): 40.9%
- Percentage responding with absent [0] reddening of the skin (skin [2]; [5]): 9.1%
- Percentage responding with marked [3] reddening of the skin (skin [2]; [5]): 31.8%
- Percentage responding with mild [1] reddening of the skin (skin [2]; [5]): 13.6%
- Percentage responding with moderate [2] reddening of the skin (skin [2]; [5]): 45.5%
- Percentage responding with absent [0] reddening of the skin (skin [2]; [6]): 4.5%
- Percentage responding with marked [3] reddening of the skin (skin [2]; [6]): 59.1%
- Percentage responding with mild [1] reddening of the skin (skin [2]; [6]): 9.1%
- Percentage responding with moderate [2] reddening of the skin (skin [2]; [6]): 27.3%
- Percentage responding with absent [0] reddening of the skin (skin [2]; [7]): 88.2%
- Percentage responding with marked [3] reddening of the skin (skin [2]; [7]): 0%
- Percentage responding with mild [1] reddening of the skin (skin [2]; [7]): 8.8%
- Percentage responding with moderate [2] reddening of the skin (skin [2]; [7]): 2.9%
- Percentage responding with absent [0] reddening of the skin (skin [2]; [8]): 67.6%
- Percentage responding with marked [3] reddening of the skin (skin [2]; [8]): 0%
- Percentage responding with mild [1] reddening of the skin (skin [2]; [8]): 29.4%
- Percentage responding with moderate [2] reddening of the skin (skin [2]; [8]): 2.9%
- Percentage responding with absent [0] reddening of the skin (skin [2]; [9]): 41.2%
- Percentage responding with marked [3] reddening of the skin (skin [2]; [9]): 0%
- Percentage responding with mild [1] reddening of the skin (skin [2]; [9]): 41.2%
- Percentage responding with moderate [2] reddening of the skin (skin [2]; [9]): 17.6%
- Percentage responding with absent [0] reddening of the skin (skin [2]; [10]): 13.5%
- Percentage responding with marked [3] reddening of the skin (skin [2]; [10]): 5.4%
- Percentage responding with mild [1] reddening of the skin (skin [2]; [10]): 37.8%
- Percentage responding with moderate [2] reddening of the skin (skin [2]; [10]): 43.2%

SMILES: NC(=O)c1cccnc1 [Nicotinamide]
- Flushing reaction in normal individuals (skin [2]; form passing the skin, suitability for the topical test): does not elicit the reaction
